Assay results published in the NIST ThermoML archive (doi:10.1021/je049544x).
Numbers after ± are expanded uncertainties.

What was measured:
[1] = Liquid; for mass density / speed of sound: 298.15 K, 101.3 kPa; for speed of sound: Sing-around technique in a fixed-path interferometer
[2] = refractive index (Na D-line) (dimensionless); settings: 298.15 K; 101.33 kPa; Liquid; Standard Abbe refractometry
[3] = xn = mol fraction of the nth substance listed; settings: 298.15 K, 101.3 kPa, Liquid; for speed of sound: Sing-around technique in a fixed-path interferometer
[4] = refractive index (Na D-line) (dimensionless); xn = mol fraction of the nth substance listed; settings: 298.15 K, 101.3 kPa, Liquid, Standard Abbe refractometry

C=COC(C)=O [vinyl acetate]
mass density [1]: 925.59 ± 0.37 kg/m3
speed of sound [1]: 1115.6 ± 1.2 m/s
vapor or sublimation pressure ([1]; 346.1 K): 101.3 ± 0.4 kPa
refractive index [2]: 1.39253 ± 0.00073

CCOC(=O)OCC [diethyl carbonate] + CO
speed of sound ([3]; x2 = 0): 1176.1 ± 1.2 m/s
speed of sound ([3]; x2 = 0.063): 1174.8 ± 1.2 m/s
speed of sound ([3]; x2 = 0.098): 1174.1 ± 1.2 m/s
speed of sound ([3]; x2 = 0.159): 1171.5 ± 1.2 m/s
speed of sound ([3]; x2 = 0.192): 1169.9 ± 1.2 m/s
speed of sound ([3]; x2 = 0.251): 1167 ± 1.2 m/s
speed of sound ([3]; x2 = 0.302): 1164.3 ± 1.2 m/s
speed of sound ([3]; x2 = 0.371): 1160.6 ± 1.2 m/s
speed of sound ([3]; x2 = 0.415): 1158.1 ± 1.2 m/s
speed of sound ([3]; x2 = 0.453): 1155.9 ± 1.2 m/s
speed of sound ([3]; x2 = 0.49): 1153.8 ± 1.2 m/s
speed of sound ([3]; x2 = 0.543): 1150.2 ± 1.2 m/s
speed of sound ([3]; x2 = 0.592): 1146.9 ± 1.2 m/s
speed of sound ([3]; x2 = 0.655): 1142.2 ± 1.2 m/s
speed of sound ([3]; x2 = 0.69): 1139.5 ± 1.2 m/s
speed of sound ([3]; x2 = 0.75): 1134.1 ± 1.2 m/s
speed of sound ([3]; x2 = 0.8): 1129.2 ± 1.2 m/s
speed of sound ([3]; x2 = 0.848): 1123.8 ± 1.2 m/s
speed of sound ([3]; x2 = 0.897): 1117.8 ± 1.2 m/s
speed of sound ([3]; x2 = 0.948): 1110.4 ± 1.2 m/s
mass density ([3]; x2 = 0): 969 ± 0.25 kg/m3
mass density ([3]; x2 = 0.063): 964.93 ± 0.26 kg/m3
mass density ([3]; x2 = 0.098): 962.48 ± 0.26 kg/m3
mass density ([3]; x2 = 0.159): 958.15 ± 0.27 kg/m3
mass density ([3]; x2 = 0.192): 955.62 ± 0.27 kg/m3
mass density ([3]; x2 = 0.251): 950.7 ± 0.28 kg/m3
mass density ([3]; x2 = 0.302): 946.14 ± 0.29 kg/m3
mass density ([3]; x2 = 0.371): 939.23 ± 0.3 kg/m3
mass density ([3]; x2 = 0.415): 934.4 ± 0.31 kg/m3
mass density ([3]; x2 = 0.453): 929.92 ± 0.32 kg/m3
mass density ([3]; x2 = 0.49): 925.16 ± 0.34 kg/m3
mass density ([3]; x2 = 0.543): 917.68 ± 0.35 kg/m3
mass density ([3]; x2 = 0.592): 910.04 ± 0.36 kg/m3
mass density ([3]; x2 = 0.655): 898.92 ± 0.38 kg/m3
mass density ([3]; x2 = 0.69): 892 ± 0.4 kg/m3
mass density ([3]; x2 = 0.75): 878.54 ± 0.42 kg/m3
mass density ([3]; x2 = 0.8): 865.37 ± 0.45 kg/m3
mass density ([3]; x2 = 0.848): 850.75 ± 0.47 kg/m3
mass density ([3]; x2 = 0.897): 833.8 ± 0.51 kg/m3
mass density ([3]; x2 = 0.948): 812.41 ± 0.55 kg/m3
refractive index ([4]; x2 = 0): 1.38221 ± 0.00072
refractive index ([4]; x2 = 0.063): 1.38098 ± 0.00072
refractive index ([4]; x2 = 0.098): 1.38026 ± 0.00072
refractive index ([4]; x2 = 0.159): 1.37901 ± 0.00072
refractive index ([4]; x2 = 0.192): 1.37825 ± 0.00072
refractive index ([4]; x2 = 0.251): 1.3769 ± 0.00072
refractive index ([4]; x2 = 0.302): 1.37563 ± 0.00072
refractive index ([4]; x2 = 0.371): 1.37345 ± 0.00072
refractive index ([4]; x2 = 0.415): 1.37205 ± 0.00072
refractive index ([4]; x2 = 0.453): 1.3705 ± 0.00072
refractive index ([4]; x2 = 0.49): 1.36915 ± 0.00072
refractive index ([4]; x2 = 0.543): 1.367 ± 0.00072
refractive index ([4]; x2 = 0.592): 1.36457 ± 0.00072
refractive index ([4]; x2 = 0.655): 1.36118 ± 0.00072
refractive index ([4]; x2 = 0.69): 1.359 ± 0.00072
refractive index ([4]; x2 = 0.75): 1.35486 ± 0.00072
refractive index ([4]; x2 = 0.8): 1.3509 ± 0.00072
refractive index ([4]; x2 = 0.848): 1.34641 ± 0.00072
refractive index ([4]; x2 = 0.897): 1.34105 ± 0.00072
refractive index ([4]; x2 = 0.948): 1.3344 ± 0.00072

CCOC(=O)OCC [diethyl carbonate]
mass density [1]: 969 ± 0.25 kg/m3
speed of sound [1]: 1176.1 ± 1.2 m/s
vapor or sublimation pressure ([1]; 399.6 K): 101.3 ± 0.3 kPa
refractive index [2]: 1.38221 ± 0.00072

CO [methanol] + CCOC(=O)OCC
speed of sound ([3]; x1 = 1): 1101.8 ± 1.2 m/s
mass density ([3]; x1 = 1): 786.56 ± 0.6 kg/m3
refractive index ([4]; x1 = 1): 1.32634 ± 0.00072

CO [methanol]
mass density [1]: 786.56 ± 0.6 kg/m3
speed of sound [1]: 1101.8 ± 1.2 m/s
vapor or sublimation pressure ([1]; 337.9 K): 101.3 ± 0.3 kPa
refractive index [2]: 1.32634 ± 0.00072

C=COC(C)=O [vinyl acetate] + CCOC(=O)OCC
speed of sound ([3]; x1 = 0.043): 1174.2 ± 1.2 m/s
speed of sound ([3]; x1 = 0.105): 1171.2 ± 1.2 m/s
speed of sound ([3]; x1 = 0.17): 1167.9 ± 1.2 m/s
speed of sound ([3]; x1 = 0.193): 1166.9 ± 1.2 m/s
speed of sound ([3]; x1 = 0.254): 1163.6 ± 1.2 m/s
speed of sound ([3]; x1 = 0.299): 1161.2 ± 1.2 m/s
speed of sound ([3]; x1 = 0.353): 1158.2 ± 1.2 m/s
speed of sound ([3]; x1 = 0.407): 1155.2 ± 1.2 m/s
speed of sound ([3]; x1 = 0.458): 1152.3 ± 1.2 m/s
speed of sound ([3]; x1 = 0.507): 1149.3 ± 1.2 m/s
speed of sound ([3]; x1 = 0.556): 1146.4 ± 1.2 m/s
speed of sound ([3]; x1 = 0.598): 1143.7 ± 1.2 m/s
speed of sound ([3]; x1 = 0.65): 1140.4 ± 1.2 m/s
speed of sound ([3]; x1 = 0.697): 1137.2 ± 1.2 m/s
speed of sound ([3]; x1 = 0.744): 1134.1 ± 1.2 m/s
speed of sound ([3]; x1 = 0.803): 1130.1 ± 1.2 m/s
speed of sound ([3]; x1 = 0.85): 1126.7 ± 1.2 m/s
speed of sound ([3]; x1 = 0.901): 1123.1 ± 1.2 m/s
speed of sound ([3]; x1 = 0.946): 1119.8 ± 1.2 m/s
speed of sound ([3]; x1 = 1): 1115.6 ± 1.2 m/s
mass density ([3]; x1 = 0.043): 967.68 ± 0.25 kg/m3
mass density ([3]; x1 = 0.105): 965.65 ± 0.26 kg/m3
mass density ([3]; x1 = 0.17): 963.45 ± 0.26 kg/m3
mass density ([3]; x1 = 0.193): 962.74 ± 0.27 kg/m3
mass density ([3]; x1 = 0.254): 960.55 ± 0.27 kg/m3
mass density ([3]; x1 = 0.299): 958.92 ± 0.28 kg/m3
mass density ([3]; x1 = 0.353): 956.87 ± 0.28 kg/m3
mass density ([3]; x1 = 0.407): 954.79 ± 0.29 kg/m3
mass density ([3]; x1 = 0.458): 952.74 ± 0.3 kg/m3
mass density ([3]; x1 = 0.507): 950.71 ± 0.3 kg/m3
mass density ([3]; x1 = 0.556): 948.6 ± 0.31 kg/m3
mass density ([3]; x1 = 0.598): 946.73 ± 0.31 kg/m3
mass density ([3]; x1 = 0.65): 944.3 ± 0.32 kg/m3
mass density ([3]; x1 = 0.697): 942.05 ± 0.32 kg/m3
mass density ([3]; x1 = 0.744): 939.73 ± 0.33 kg/m3
mass density ([3]; x1 = 0.803): 936.72 ± 0.34 kg/m3
mass density ([3]; x1 = 0.85): 934.22 ± 0.34 kg/m3
mass density ([3]; x1 = 0.901): 931.44 ± 0.35 kg/m3
mass density ([3]; x1 = 0.946): 928.87 ± 0.36 kg/m3
mass density ([3]; x1 = 1): 925.59 ± 0.37 kg/m3
refractive index ([4]; x1 = 0.043): 1.3826 ± 0.00072
refractive index ([4]; x1 = 0.105): 1.3832 ± 0.00072
refractive index ([4]; x1 = 0.17): 1.38373 ± 0.00072
refractive index ([4]; x1 = 0.193): 1.38396 ± 0.00072
refractive index ([4]; x1 = 0.254): 1.38458 ± 0.00072
refractive index ([4]; x1 = 0.299): 1.385 ± 0.00072
refractive index ([4]; x1 = 0.353): 1.3855 ± 0.00072
refractive index ([4]; x1 = 0.407): 1.38602 ± 0.00072
refractive index ([4]; x1 = 0.458): 1.38655 ± 0.00072
refractive index ([4]; x1 = 0.507): 1.38706 ± 0.00072
refractive index ([4]; x1 = 0.556): 1.38757 ± 0.00072
refractive index ([4]; x1 = 0.598): 1.38804 ± 0.00072
refractive index ([4]; x1 = 0.65): 1.38859 ± 0.00072
refractive index ([4]; x1 = 0.697): 1.38917 ± 0.00072
refractive index ([4]; x1 = 0.744): 1.38968 ± 0.00072
refractive index ([4]; x1 = 0.803): 1.39031 ± 0.00072
refractive index ([4]; x1 = 0.85): 1.39087 ± 0.00072
refractive index ([4]; x1 = 0.901): 1.39143 ± 0.00073
refractive index ([4]; x1 = 0.946): 1.39197 ± 0.00073
refractive index ([4]; x1 = 1): 1.39253 ± 0.00073

CCOC(=O)OCC [diethyl carbonate] + C=COC(C)=O
speed of sound ([3]; x2 = 0): 1176.1 ± 1.2 m/s
mass density ([3]; x2 = 0): 969 ± 0.25 kg/m3
refractive index ([4]; x2 = 0): 1.38221 ± 0.00072
